Test results from the Kinase Knowledgebase extract (Sharma et al. 2016).

Target: PIK3CG (human) (UniProt P48736)
Assay: Inhibition of PIK3CG Kinase Activity

Sequence of PIK3CG (human) (P48736 whole entry, looked up): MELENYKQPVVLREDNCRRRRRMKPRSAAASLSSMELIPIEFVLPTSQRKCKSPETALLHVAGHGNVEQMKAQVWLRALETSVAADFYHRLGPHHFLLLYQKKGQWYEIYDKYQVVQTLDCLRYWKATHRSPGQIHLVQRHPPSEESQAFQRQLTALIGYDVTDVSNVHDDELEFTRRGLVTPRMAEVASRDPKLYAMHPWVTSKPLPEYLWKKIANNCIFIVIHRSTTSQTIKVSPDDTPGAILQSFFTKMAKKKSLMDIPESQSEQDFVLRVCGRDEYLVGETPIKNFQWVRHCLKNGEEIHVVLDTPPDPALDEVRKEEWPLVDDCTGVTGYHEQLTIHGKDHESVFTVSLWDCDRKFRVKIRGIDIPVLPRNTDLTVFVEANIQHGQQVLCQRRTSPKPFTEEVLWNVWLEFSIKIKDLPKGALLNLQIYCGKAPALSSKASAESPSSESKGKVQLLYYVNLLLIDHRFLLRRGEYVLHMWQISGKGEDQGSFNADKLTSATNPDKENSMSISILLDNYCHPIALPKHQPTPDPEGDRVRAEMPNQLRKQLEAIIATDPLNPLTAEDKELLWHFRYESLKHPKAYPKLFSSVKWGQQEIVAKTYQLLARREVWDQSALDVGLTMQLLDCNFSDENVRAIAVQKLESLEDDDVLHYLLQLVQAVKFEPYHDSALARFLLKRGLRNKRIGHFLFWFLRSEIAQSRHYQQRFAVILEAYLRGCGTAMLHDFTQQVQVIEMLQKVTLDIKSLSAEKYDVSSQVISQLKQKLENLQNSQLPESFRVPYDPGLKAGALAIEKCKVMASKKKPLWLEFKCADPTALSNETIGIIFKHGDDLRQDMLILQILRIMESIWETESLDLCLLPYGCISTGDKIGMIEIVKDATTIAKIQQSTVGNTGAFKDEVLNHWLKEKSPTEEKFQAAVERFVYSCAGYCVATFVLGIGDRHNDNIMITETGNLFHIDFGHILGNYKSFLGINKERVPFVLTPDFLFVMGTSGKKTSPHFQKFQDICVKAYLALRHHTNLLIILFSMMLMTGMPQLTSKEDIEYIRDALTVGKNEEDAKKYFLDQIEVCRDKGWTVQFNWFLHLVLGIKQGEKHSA

SMILES | Ki [nM]
COCc1cccc(-c2cc(C)c3c(n2)CN(c2cnn(C(C)(C)C#N)c2)C3=O)c1 | 100 to 490
Cc1cc(-c2cncc(N)c2)nc2c1C(=O)N(c1cnn(CC(F)(F)F)c1)C2 | 100 to 490
COc1cc(-c2ccc3c(c2)CN(c2ccnc(C)c2)C3=O)cnc1OC | 100 to 490
CCOCCOc1ncc(-c2cc(C)c3c(n2)CN(c2cnn(CC(F)(F)F)c2)C3=O)cc1OC | 100 to 490
COc1cc(-c2ccc3c(c2)CN(c2cc(C)n(C)n2)C3=O)cnc1OC | 100 to 490
CCOc1ncc(-c2cc(C)c3c(n2)[C@]2(CCCO2)N(c2ccn(CC)n2)C3=O)cc1OC | 100 to 490
COc1cc(-c2ccc3c(n2)CN(c2ccc(N(C)CC(OC)OC)nc2)C3=O)cnc1OC | 100 to 490
COc1cc(-c2ccc3c(n2)CN(c2ccc(N4CCC(CCO)C4)nc2)C3=O)cnc1OC (stereo not given) | 100 to 490
CCOc1cc(-c2ccc3c(c2)CN(c2cnn(CC)c2)C3=O)cnc1OC | 100 to 490
COCCOCCOc1ncc(-c2cc(C)c3c(n2)CN(c2cnn(C)c2)C3=O)cc1OC | 100 to 490
COCCOCCOc1ncc(-c2cc(C)c3c(c2)CN(c2cnn(CC(F)(F)F)c2)C3=O)cc1OC | 100 to 490
COc1ncc(-c2cc(C)c3c(n2)C(C)(C)N(c2cnn(CC(F)(F)F)c2)C3=O)cc1NS(=O)(=O)N(C)C | < 100
CCn1cc(N2Cc3cc(-c4cnc5ccccc5c4)ccc3C2=O)cn1 | 100 to 490
COc1cc(-c2ccc3c(n2)CN(c2cnn(CCn4cccn4)c2)C3=O)cnc1OC | 100 to 490
COc1cc(-c2cc3c(c(C)n2)C(=O)N(c2cnn(CC(F)(F)F)c2)C3)cnc1OC | < 100
COc1cc(-c2cc(C)c3c(n2)CN(c2cnn(C(C)(C)C(N)=O)c2)C3=O)cnc1OC | < 100
CCc1cc(-c2cnc(OC)c(OC)c2)nc2c1C(=O)N(c1cn[nH]c1)C2(C)C | < 100
COc1cc(-c2cc(C)c3c(n2)C(OCC2CC2)N(c2cnn(CC(F)(F)F)c2)C3=O)cnc1OC (stereo not given) | < 100
COc1cc(-c2cc(C)c3c(n2)CN(c2ccnc(OC(F)F)c2)C3=O)cnc1OC | < 100
COc1cc(-c2ccc3c(c2)CN(c2cnn(CC#N)c2)C3=O)cnc1OC | < 100
CCOc1ncc(-c2cc(C)c3c(n2)CN(c2cnn(CC#N)c2)C3=O)cc1OC | < 100

SMILES | Ki [nM]
Cc1cc(-c2cncc(S(=O)(=O)N(C)C)c2)nc2c1C(=O)N(c1ccn([C@H]3CCOC3)n1)C2 | < 100
Cc1cc(-c2cncc(OCC(F)F)c2)nc2c1C(=O)N(c1cnn(CC(F)(F)F)c1)C21CCOCC1 | < 100
CNC(=O)c1cc(-c2cc(C)c3c(n2)C(C)(C)N(c2cnn(CC(F)(F)F)c2)C3=O)cnc1OC | 100 to 490
Cc1cc(-c2cncc(C#N)c2)nc2c1C(=O)N(c1cnn(CC#N)c1)C2 | < 100
COc1cc(-c2ccc3c(n2)C(Cc2ccccc2)N(c2cnn(CC(F)(F)F)c2)C3=O)cnc1OC (stereo not given) | < 100
COc1cc(-c2ccc3c(n2)[C@@H](C)N(c2ccn(C[C@@H](C)O)n2)C3=O)cnc1OC | < 100
COc1cc(-c2ccc3c(n2)CN(c2cc(C)n(CC(F)(F)F)n2)C3=O)cnc1OC | < 100
COc1cncc(-c2cc(C)c3c(n2)[C@H](OC)N(c2cnn(CC(F)(F)F)c2)C3=O)c1 | < 100
COc1cncc(-c2cc(C)c3c(n2)C(C)(C)N(c2ccn(CC(C)(C)O)n2)C3=O)c1 | 100 to 490
COc1cc(-c2ccc3c(n2)CN(c2ccc(=O)n(CC4COCCO4)c2)C3=O)cnc1OC (stereo not given) | < 100
COc1cc(-c2cc(C)c3c(n2)CN(c2cc(O)[nH]n2)C3=O)cnc1OC | < 100
Cc1cc(-c2cncc(OCC(F)(F)F)c2)nc2c1C(=O)N(c1cnn(CC(F)(F)F)c1)C2 | < 100
COc1cc(-c2cc(C)c3c(n2)CN(c2ncccn2)C3=O)cnc1OC | 100 to 490
COc1cc(-c2cc(C)c3c(n2)CN(c2ccn(CC(F)(F)F)n2)C3=O)cnc1OC | < 100
COc1cncc(-c2cc(C)c3c(c2)C(C)N(c2cnn(CC(F)(F)F)c2)C3=O)c1 (stereo not given) | < 100
COc1cc(-c2ccc3c(c2)CN(c2cncc(CC#N)c2)C3=O)cnc1OC | < 100
COCCOCCOc1ncc(-c2cc(C)c3c(c2)CN(c2cnn(CC#N)c2)C3=O)cc1OC | < 100
CCOc1cc(-c2ccc3c(n2)CN(c2cnn(CC#N)c2)C3=O)cnc1OC | < 100
CCn1cc(N2Cc3nc(-c4cnc(OC)c(OC)c4)ccc3C2=O)ccc1=O | < 100
COc1cc(-c2ccc3c(c2)CN(c2cnn(CC(F)F)c2)C3=O)cnc1OC | < 100

Continued, values first:

Ki [nM] | SMILES
< 100 | COCCOCn1cc(N2C(=O)c3ccc(-c4cnc(OC)c(OC)c4)nc3[C@H]2C)cn1
< 100 | CCn1ccc(N2Cc3nc(-c4cnc(OC)c(OCC(F)(F)F)c4)cc(C)c3C2=O)n1
< 100 | COCCOCCOc1cc(-c2cc(C)c3c(n2)CN(c2cnn(CC(F)(F)F)c2)C3=O)cnc1OC
< 100 | COc1cc(-c2cc(C)c3c(n2)CN(c2cnccn2)C3=O)cnc1OC
< 100 | COc1cc(-c2ccc3c(n2)CN(c2ccc(OC(CO)C(F)(F)F)nc2)C3=O)cnc1OC (stereo not given)
< 100 | Cc1cc(-c2cncc(NS(=O)(=O)c3ccc(F)cc3F)c2)nc2c1C(=O)N(c1cnn(CC(F)(F)F)c1)C2(C)C
< 100 | COc1cncc(-c2cc(C)c3c(n2)[C@@H](C)N(c2ccn(CC(C)(C)O)n2)C3=O)c1
< 100 | COc1cc(-c2cc3c(c(C)n2)C(=O)N(c2cnn(CC(F)(F)F)c2)C3C)cnc1OC (stereo not given)
< 100 | COC(=O)CC1c2nc(-c3cnc(OC)c(OC)c3)ccc2C(=O)N1c1cnn(CC(F)(F)F)c1 (stereo not given)
< 100 | CCOc1cncc(-c2cc(C)c3c(n2)C(C)N(c2cnn(CC(F)(F)F)c2)C3=O)c1 (stereo not given)
< 100 | Cc1cc(-c2cncc(OC(C)C)c2)nc2c1C(=O)N(c1cnn(CC(F)(F)F)c1)C2(C)C
< 100 | Cc1cc(-c2cncc(OCC(F)(F)F)c2)nc2c1C(=O)N(c1cnn(CC(F)F)c1)C2(C)C
< 100 | COc1cc(-c2ccc3c(n2)CN(c2ccc(N4CCN(C)CC4)nc2)C3=O)cnc1OC
< 100 | COc1ccc(-c2ccc3c(n2)CN(c2cnn(CC#N)c2)C3=O)c(OC)n1
< 100 | COc1cc(OC)c(-c2cc(C)c3c(c2)CN(c2cnn(CC(F)(F)F)c2)C3=O)cn1
< 100 | COc1cc(-c2ccc3c(n2)[C@@H](C)N(c2ccnc(CC#N)c2)C3=O)cnc1OC
< 100 | COc1cc(-c2ccc3c(c2)CN(c2cnn(CCC#N)c2)C3=O)cnc1OC
< 100 | Cc1cc(-c2cncc(OC(F)F)c2)nc2c1C(=O)N(c1cnn(C(C)(C)C#N)c1)C2
< 100 | COc1cc(-c2ccc3c(n2)C(C)N(c2ccn(CC(C)(C)F)n2)C3=O)cnc1OC (stereo not given)
< 100 | COc1cc(-c2cc(Cl)c3c(n2)CN(c2cnn(CC(F)(F)F)c2)C3=O)cnc1OC
< 100 | COc1cc(-c2cc(C)c3c(n2)C(O[C@H]2CCOC2)N(c2cnn(CC(F)(F)F)c2)C3=O)cnc1OC (stereo not given in full)
< 100 | CCn1cc(N2Cc3nc(-c4cnc(OCCOC)c(OC)c4)cc(C)c3C2=O)cn1
< 100 | CCn1cc(N2Cc3nc(-c4cncc(OC(F)F)c4)cc(C)c3C2=O)cn1
< 100 | COc1cc(-c2ccc3c(n2)CN(c2ccc(N4CCC(N(C)C)C4)nc2)C3=O)cnc1OC (stereo not given)
< 100 | COc1ccc(-c2cc(C)c3c(c2)CN(c2cnn(CC#N)c2)C3=O)cc1OC
< 100 | COc1cc(-c2ccc3c(n2)CN(c2ccc(=O)n(CC#N)c2)C3=O)cnc1OC
< 100 | COc1cc(-c2cc(C)c3c(n2)C(C)(C)N(c2cnn(CC(F)(F)F)c2)C3=O)cnc1OC(C)C

Ki [nM] | SMILES
< 100 | COc1ncc(-c2cc(C)c3c(n2)C(C)(C)N(c2cnn(C(C)(C)C#N)c2)C3=O)cc1OCC(F)F
< 100 | COc1cc(-c2ccc3c(n2)CN(c2ccc(=O)n(CC(F)(F)F)c2)C3=O)cnc1OC
< 100 | CSc1cncc(-c2cc(C)c3c(n2)CN(c2cnn(CC(F)(F)F)c2)C3=O)c1
< 100 | CCn1ccc(N2C(=O)c3c(C)cc(-c4cncc(OC(F)F)c4)nc3C2C)n1 (stereo not given)
< 100 | COc1cc(-c2ccc3c(n2)[C@@H](C)N(c2cn[nH]c2)C3=O)cnc1OC
< 100 | CON=Cc1cncc(-c2cc(C)c3c(n2)C(C)(C)N(c2cnn(CC(F)(F)F)c2)C3=O)c1
< 100 | CCOc1ncc(-c2cc(C)c3c(n2)[C@@]2(CCCO2)N(c2cnn(CC(F)(F)F)c2)C3=O)cc1OC
< 100 | CCOc1cc(-c2cc(C)c3c(n2)CN(c2ccon2)C3=O)cnc1OCC
< 100 | COc1cncc(-c2cc(C)c3c(n2)C2(COC2)N(c2cnn(CC(F)(F)F)c2)C3=O)c1
< 100 | Cc1cc(-c2cncc(OC(F)F)c2)nc2c1C(=O)N(c1cnn(C[C@H](C)O)c1)C2C (stereo not given in full)
< 100 | COc1cc(-c2ccc3c(n2)CN(c2cncc(C(C)(C)C#N)c2)C3=O)cnc1OC
< 100 | COc1ncc(-c2cc(C)c3c(n2)CN(c2cnn(CC(F)(F)F)c2)C3=O)cc1OCC1CCCCO1 (stereo not given)
< 100 | COCCOCCOc1ncc(-c2cc(C)c3c(n2)CN(c2cnn(CC(F)(F)F)c2)C3=O)cc1OC
< 100 | COc1cc(-c2cc(C)c3c(n2)CN(c2cnn(CC(F)(F)F)c2)C3=O)cc(OC)n1
< 100 | CCc1cc(N2Cc3nc(-c4cnc(OC)c(OC)c4)cc(C)c3C2=O)nn1CC
< 100 | Cc1cc(-c2cncc(OCC(F)(F)F)c2)nc2c1C(=O)N(c1cnn(CC(F)(F)F)c1)C2C (stereo not given)
< 100 | COc1cncc(-c2cc(C)c3c(n2)C(OCCO)N(c2cnn(CC(F)(F)F)c2)C3=O)c1 (stereo not given)
< 100 | COc1cncc(-c2cc(C)c3c(n2)C(C)N(c2cn(C)cn2)C3=O)c1 (stereo not given)
< 100 | COc1cc(-c2ccc3c(n2)C(C)N(c2ccnc(C(C)C#N)c2)C3=O)cnc1OC (stereo not given)
< 100 | COc1cc(-c2ccc3c(n2)C(C)N(c2cnn(C=C(F)F)c2)C3=O)cnc1OC (stereo not given)
< 100 | COc1ncc(-c2cc(C)c3c(n2)C(C)N(c2cnn(CC(F)F)c2)C3=O)cc1C(=O)O (stereo not given)
< 100 | COc1cc(-c2ccc3c(n2)CN(c2ccc(N4CCN(CCO)CC4)nc2)C3=O)cnc1OC
< 100 | COc1cc(-c2ccc3c(n2)CN(c2cnn(CC(F)(F)F)c2)C3=O)cnc1OC
< 100 | COc1cc(-c2ccc3c(n2)CN(c2cnn(CC4(C)COC4)c2)C3=O)cnc1OC
< 100 | C=C(F)Cn1cc(N2Cc3nc(-c4cncc(OC(F)F)c4)cc(C)c3C2=O)cn1
< 100 | CCOc1cncc(-c2cc(C)c3c(n2)C(C)(C)N(c2cnn(CC(F)(F)F)c2)C3=O)c1
< 100 | CCn1cc(N2C(=O)c3ccc(-c4cnc(OC)c(OC)c4)nc3[C@@H]2C)cn1
